{"source": "patent US11542263B2", "about": "(NeuroCycle Therapeutics, Inc., priority 2018, dated 2023)", "experiment": "Approximate solubility of TPA023B Phosphate in solvents (stepwise solvent addition)", "type": "physicochemical", "details": "thermodynamic from solid", "method": "The total amount of solvent was recorded to calculate the approximate solubility in these solvents."}
{"smiles": "CC(C)(O)c1cnn2c(-c3ccc(F)c(-c4c(F)cccc4C#N)c3)cnc2n1.O=P(O)(O)O", "note": "[Phosphate Polymorphic Form A, 2′,6-difluoro-5′-[3-(1-hydroxy-1-methylethyl)-imidazo[1,2-b][1,2,4]triazin-7-yl]biphenyl-2-carbonitrile]", "values": [{"measurement": "solubility", "setting": "aqueous with cosolvent or surfactant or cyclodextrin, Acetone/H2O (1/1, v/v), 50° C.", "value": "2000 to 10000", "unit": "µg/mL"}, {"measurement": "solubility", "setting": "aqueous with cosolvent or surfactant or cyclodextrin, Acetone/H2O (1/1, v/v), RT", "value": "< 2000", "unit": "µg/mL"}, {"measurement": "solubility", "setting": "aqueous with cosolvent or surfactant or cyclodextrin, EtOH/H2O (1/1, v/v), 50° C.", "value": "< 2000", "unit": "µg/mL"}, {"measurement": "solubility", "setting": "aqueous with cosolvent or surfactant or cyclodextrin, EtOH/H2O (1/1, v/v), RT", "value": "< 2000", "unit": "µg/mL"}, {"measurement": "solubility", "setting": "organic solvent or mixture, 1,4-Dioxane, 50° C.", "value": "20000 to 25000", "unit": "µg/mL"}, {"measurement": "solubility", "setting": "organic solvent or mixture, 1,4-Dioxane, RT", "value": "20000 to 25000", "unit": "µg/mL"}, {"measurement": "solubility", "setting": "organic solvent or mixture, Acetone, 50° C.", "value": "< 10000", "unit": "µg/mL"}, {"measurement": "solubility", "setting": "organic solvent or mixture, Acetone, RT", "value": "6000 to 10000", "unit": "µg/mL"}, {"measurement": "solubility", "setting": "organic solvent or mixture, Acetonitrile (ACN), 50° C.", "value": "2000 to 10000", "unit": "µg/mL"}, {"measurement": "solubility", "setting": "organic solvent or mixture, Acetonitrile (ACN), RT", "value": "< 2000", "unit": "µg/mL"}, {"measurement": "solubility", "setting": "organic solvent or mixture, DCM, 50° C.", "value": "10000 to 50000", "unit": "µg/mL"}, {"measurement": "solubility", "setting": "organic solvent or mixture, DCM, RT", "value": "8000 to 10000", "unit": "µg/mL"}, {"measurement": "solubility", "setting": "organic solvent or mixture, DMF, RT", "value": "> 100000", "unit": "µg/mL"}, {"measurement": "solubility", "setting": "organic solvent or mixture, DMSO, RT", "value": "> 100000", "unit": "µg/mL"}, {"measurement": "solubility", "setting": "organic solvent or mixture, EtOAc, 50° C.", "value": "< 2000", "unit": "µg/mL"}, {"measurement": "solubility", "setting": "organic solvent or mixture, EtOAc, RT", "value": "< 2000", "unit": "µg/mL"}, {"measurement": "solubility", "setting": "organic solvent or mixture, Ethanol, 50° C.", "value": "10000 to 50000", "unit": "µg/mL"}, {"measurement": "solubility", "setting": "organic solvent or mixture, Ethanol, RT", "value": "< 8000", "unit": "µg/mL"}, {"measurement": "solubility", "setting": "organic solvent or mixture, Heptane, 50° C.", "value": "< 2000", "unit": "µg/mL"}, {"measurement": "solubility", "setting": "organic solvent or mixture, Heptane, RT", "value": "< 2000", "unit": "µg/mL"}, {"measurement": "solubility", "setting": "organic solvent or mixture, Isopropanol, 50° C.", "value": "10000 to 50000", "unit": "µg/mL"}, {"measurement": "solubility", "setting": "organic solvent or mixture, Isopropanol, RT", "value": "< 8000", "unit": "µg/mL"}, {"measurement": "solubility", "setting": "organic solvent or mixture, MEK, 50° C.", "value": "< 10000", "unit": "µg/mL"}, {"measurement": "solubility", "setting": "organic solvent or mixture, MEK, RT", "value": "2000 to 4000", "unit": "µg/mL"}, {"measurement": "solubility", "setting": "organic solvent or mixture, MTBE, 50° C.", "value": "< 2000", "unit": "µg/mL"}, {"measurement": "solubility", "setting": "organic solvent or mixture, MTBE, RT", "value": "< 2000", "unit": "µg/mL"}, {"measurement": "solubility", "setting": "organic solvent or mixture, Methanol, 50° C.", "value": "10000 to 50000", "unit": "µg/mL"}, {"measurement": "solubility", "setting": "organic solvent or mixture, Methanol, RT", "value": "8000 to 10000", "unit": "µg/mL"}, {"measurement": "solubility", "setting": "organic solvent or mixture, THF, 50° C.", "value": "< 50000", "unit": "µg/mL"}, {"measurement": "solubility", "setting": "organic solvent or mixture, THF, RT", "value": "20000 to 50000", "unit": "µg/mL"}, {"measurement": "solubility", "setting": "organic solvent or mixture, Toluene, 50° C.", "value": "< 2000", "unit": "µg/mL"}, {"measurement": "solubility", "setting": "organic solvent or mixture, Toluene, RT", "value": "< 2000", "unit": "µg/mL"}, {"measurement": "solubility", "setting": "water, H2O, 50° C.", "value": "< 2000", "unit": "µg/mL"}, {"measurement": "solubility", "setting": "water, H2O, RT", "value": "< 2000", "unit": "µg/mL"}]}
